Like-named read-outs stand apart in the source and are kept apart here.
Tests used:
MV4;11 cells = experiment: Cell viability assay (CellTiter-Glo) in MV4;11 cells, alone or with gilteritinib; assay type: cell-based; conditions: Homo sapiens, MV4;11 cells, three days, CellTiter-Glo, read-out: MV4
MOLM-13 cells = experiment: Cell viability assay (CellTiter-Glo) in MOLM-13 cells, alone or with gilteritinib; assay type: cell-based; conditions: Homo sapiens, MOLM-13 cells, three days, CellTiter-Glo
[1] = MV4-11, 72 h, compound alone (without gilteritinib), 11 IC50
[2] = MV4-11, 72 h, compound with gilteritinib 10 nM, 11 IC50 gilteritinib
[3] = MOLM-13, 72 h, compound alone (without gilteritinib), read-out: MOLM-13 IC50
[4] = MOLM-13, 72 h, compound with gilteritinib 20 nM, read-out: MOLM-13 IC50 gilteritinib

Structure (SMILES) | IC50 (MV4;11 cells; [1]) | IC50 (MV4;11 cells; [2]) | IC50 (MOLM-13 cells; [3]) | IC50 (MOLM-13 cells; [4]) | IC50 (MV4;11 cells; 72 h, compound alone (without gilteritinib), 11 IC50) | IC50 (MV4;11 cells; 72 h, compound with gilteritinib 10 nM, 11 IC50 gilteritinib) | IC50 (MOLM-13 cells; 72 h, compound alone (without gilteritinib), read-out: MOLM-13 IC50) | IC50 (MOLM-13 cells; 72 h, compound with gilteritinib 20 nM, read-out: MOLM-13 IC50 gilteritinib)
O=C(CCC(F)(F)C(=O)N1CCC(n2cc(-c3cnc4ccccc4n3)cn2)CC1)NCc1ccc2c(c1)CN(C1CCC(=O)NC1=O)C2=O (centres unmarked) [GS-518, N-((2-(2,6-Dioxopiperidin-3-yl)-1-oxoisoindolin-5-yl)methyl)-4,4-difluoro-5-oxo-5-(4-(4-(quinoxalin-2-yl)-1H-pyrazol-1-yl)piperidin-1-yl)pentanamide] | 10 to 100 nM | < 10 nM | 100 to 1000 nM | < 10 nM |  |  |  | 
O=C1CCC(N2Cc3ccc(NCCCCCn4cc(-c5cnc6ccccc6n5)cn4)cc3C2=O)C(=O)N1 (centres unmarked) [GS-519, 3-(1-Oxo-6-((5-(4-(quinoxalin-2-yl)-1H-pyrazol-1-yl)pentyl)amino)isoindolin-2-yl)piperidine-2,6-dione] | > 1000 nM | > 1000 nM | > 1000 nM | > 1000 nM |  |  |  | 
O=C1CCC(N2C(=O)c3ccc(NCCCCC(F)(F)C(=O)N4CCC(n5cc(-c6cnc7ccccc7n6)cn5)CC4)cc3C2=O)C(=O)N1 (centres unmarked) [GS-520, 5-((5,5-difluoro-6-oxo-6-(4-(4-(quinoxalin-2-yl)-1H-pyrazol-1-yl)piperidin-1-yl)hexyl)amino)-2-(2,6-dioxopiperidin-3-yl)isoindoline-1,3-dione] | < 10 nM | < 10 nM | < 10 nM | < 10 nM |  |  |  | 
O=C1CCC(N2C(=O)c3ccc(NCCCCCCn4cc(-c5nc6ccccc6nc5C(F)(F)F)cn4)cc3C2=O)C(=O)N1 (centres unmarked) [GS-522, 2-(2,6-Dioxopiperidin-3-yl)-5-((6-(4-(3-(trifluoromethyl)quinoxalin-2-yl)-1H-pyrazol-1-yl)hexyl)amino)isoindoline-1,3-dione] | 100 to 1000 nM | 10 to 100 nM | > 1000 nM | < 10 nM |  |  |  | 
CC(C)c1nc2ccccc2nc1-c1cnn(CCCCCCNc2ccc3c(c2)C(=O)N(C2CCC(=O)NC2=O)C3=O)c1 (centres unmarked) [GS-523, 2-(2,6-Dioxopiperidin-3-yl)-5-((6-(4-(3-isopropylquinoxalin-2-yl)-1H-pyrazol-1-yl)hexyl)amino)isoindoline-1,3-dione] |  |  |  |  | > 1000 nM | 100 to 1000 nM | > 1000 nM | 100 to 1000 nM
O=C1CCC(N2C(=O)c3ccc(NC4CC(n5cc(-c6cnc7ccccc7n6)cn5)C4)cc3C2=O)C(=O)N1 (centres unmarked) [GS-524, 2-(2,6-Dioxopiperidin-3-yl)-5-((3-(4-(quinoxalin-2-yl)-1H-pyrazol-1-yl)cyclobutyl)amino)isoindoline-1,3-dione] | 100 to 1000 nM | 100 to 1000 nM | > 1000 nM | 10 to 100 nM |  |  |  | 
O=C1CCC(N2C(=O)c3ccc(NCCCCCC(=O)N4CCC(n5cc(-c6cnc7ccc(C8=CCNCC8)cc7n6)cn5)CC4)cc3C2=O)C(=O)N1 (centres unmarked) [GS-525, 2-(2,6-Dioxopiperidin-3-yl)-5-((6-oxo-6-(4-(4-(7-(1,2,3,6-tetrahydropyridin-4-yl)quinoxalin-2-yl)-1H-pyrazol-1-yl)piperidin-1-yl)hexyl)amino)isoindoline-1,3-dione] | < 10 nM | < 10 nM | 10 to 100 nM | < 10 nM |  |  |  | 
O=C1CCC(N2C(=O)c3ccc(NCCCCCC(=O)N4CCC(n5cc(-c6cnc7ccc(N8CCNCC8)cc7n6)cn5)CC4)cc3C2=O)C(=O)N1 (centres unmarked) [GS-526, 2-(2,6-Dioxopiperidin-3-yl)-5-((6-oxo-6-(4-(4-(7-(piperazin-1-yl)quinoxalin-2-yl)-1H-pyrazol-1-yl)piperidin-1-yl)hexyl)amino)isoindoline-1,3-dione] | < 10 nM | < 10 nM | < 10 nM | < 10 nM |  |  |  | 
O=C1CCC(N2C(=O)c3ccc(NC4CC5(C4)CC(n4cc(-c6cnc7ccccc7n6)cn4)C5)cc3C2=O)C(=O)N1 (centres unmarked) [GS-527, 2-(2,6-Dioxopiperidin-3-yl)-5-((6-(4-(quinoxalin-2-yl)-1H-pyrazol-1-yl)spiro[3.3]heptan-2-yl)amino)isoindoline-1,3-dione] | 100 to 1000 nM | 100 to 1000 nM | > 1000 nM | 100 to 1000 nM |  |  |  | 
O=C1CCC(N2C(=O)c3ccc(NCCCCCC(=O)N4CCC(n5cc(-c6cnc7ccc(N8CCOCC8)cc7n6)cn5)CC4)cc3C2=O)C(=O)N1 (centres unmarked) [GS-528, 2-(2,6-Dioxopiperidin-3-yl)-5-((6-(4-(4-(7-morpholinoquinoxalin-2-yl)-1H-pyrazol-1-yl)piperidin-1-yl)-6-oxohexyl)amino)isoindoline-1,3-dione] | < 10 nM | < 10 nM | < 10 nM | < 10 nM |  |  |  | 
CN1CCN(c2ccc3ncc(-c4cnn(CCCCCCNc5ccc6c(c5)C(=O)N(C5CCC(=O)NC5=O)C6=O)c4)nc3c2)CC1 (centres unmarked) [GS-529, 2-(2,6-Dioxopiperidin-3-yl)-5-((6-(4-(7-(4-methylpiperazin-1-yl)quinoxalin-2-yl)-1H-pyrazol-1-yl)hexyl)amino)isoindoline-1,3-dione] | 10 to 100 nM | < 10 nM | > 1000 nM | < 10 nM |  |  |  | 
O=C1CCC(N2C(=O)c3ccc(NCCCCCCn4cc(-c5cnc6ccc(N7CCOCC7)cc6n5)cn4)cc3C2=O)C(=O)N1 (centres unmarked) [GS-530, 2-(2,6-Dioxopiperidin-3-yl)-5-((6-(4-(7-morpholinoquinoxalin-2-yl)-1H-pyrazol-1-yl)hexyl)amino)isoindoline-1,3-dione] | 10 to 100 nM | < 10 nM | 10 to 100 nM | < 10 nM |  |  |  | 
O=C1CCC(N2C(=O)c3ccc(NCCCCCCn4cc(-c5cnc6ccc(C7=CCNCC7)cc6n5)cn4)cc3C2=O)C(=O)N1 (centres unmarked) [GS-531, 2-(2,6-Dioxopiperidin-3-yl)-5-((6-(4-(7-(1,2,3,6-tetrahydropyridin-4-yl)quinoxalin-2-yl)-1H-pyrazol-1-yl)hexyl)amino)isoindoline-1,3-dione] | 10 to 100 nM | < 10 nM | 10 to 100 nM | < 10 nM |  |  |  | 
O=C1CCC(N2C(=O)c3ccc(NCCCCCCn4cc(-c5cnc6ccc(N7CCNCC7)cc6n5)cn4)cc3C2=O)C(=O)N1 (centres unmarked) [GS-532, 2-(2,6-Dioxopiperidin-3-yl)-5-((6-(4-(7-(piperazin-1-yl)quinoxalin-2-yl)-1H-pyrazol-1-yl)hexyl)amino)isoindoline-1,3-dione] | 10 to 100 nM | < 10 nM | 100 to 1000 nM | < 10 nM |  |  |  | 
O=C1CCC(N2Cc3cc(CNC(=O)C(F)(F)CCC(=O)N4CCC(n5cc(-c6cnc7ccccc7n6)cn5)CC4)ccc3C2=O)C(=O)N1 (centres unmarked) [GS-533, N-((2-(2,6-dioxopiperidin-3-yl)-1-oxoisoindolin-5-yl)methyl)-2,2-difluoro-5-oxo-5-(4-(4-(quinoxalin-2-yl)-1H-pyrazol-1-yl)piperidin-1-yl)pentanamide] | 100 to 1000 nM | 10 to 100 nM | > 1000 nM | > 1000 nM |  |  |  | 
Cc1nn(CCCCCCNc2ccc3c(c2)C(=O)N(C2CCC(=O)NC2=O)C3=O)cc1-c1cnc2ccccc2n1 (centres unmarked) [GS-534, 2-(2,6-Dioxopiperidin-3-yl)-5-((6-(3-methyl-4-(quinoxalin-2-yl)-1H-pyrazol-1-yl)hexyl)amino)isoindoline-1,3-dione] | 10 to 100 nM | < 10 nM | 10 to 100 nM | < 10 nM |  |  |  | 
Cc1c(-c2cnc3ccccc3n2)cnn1CCCCCCNc1ccc2c(c1)C(=O)N(C1CCC(=O)NC1=O)C2=O (centres unmarked) [GS-535, 2-(2,6-dioxopiperidin-3-yl)-5-((6-(5-methyl-4-(quinoxalin-2-yl)-1H-pyrazol-1-yl)hexyl)amino)isoindoline-1,3-dione] | 10 to 100 nM | 10 to 100 nM | > 1000 nM | < 10 nM |  |  |  | 

Reference: US20240050428A1 (Cullgen (Shanghai), Inc., priority 2020, published 2024)
